Earlier results as cited in Sander's compilation of Henry's law constants (doi:10.1093/bja/45.3.282).

Assay: Henry solubility constant Hcp at 310 K (mol/(m3 Pa))
Conditions: reference: Steward et al. (1973); cited value

Row | Henry solubility constant Hcp at 310 K | Structure (SMILES)
1 | 3.5e-05 | C=C [ethene]
2 | 0.00033 | C=COCC(F)(F)F [(2,2,2-trifluoroethoxy)-ethene]
3 | 0.00031 | FC(F)(F)C(Cl)Br (centres undefined) [1-bromo-1-chloro-2,2,2-trifluoroethane]
4 | 2e-05 | [Kr] [krypton]

The next lines start with the compound.

Row | Structure (SMILES) | Henry solubility constant Hcp at 310 K
5 | C1CC1 [cyclopropane] | 8.1e-05
6 | [Xe] [xenon] | 3.3e-05
7 | FC(F)OC(Cl)C(F)(F)F (centres undefined) [1-chloro-2,2,2-trifluoroethyl difluoromethyl ether] | 0.00024
8 | ClC=C(Cl)Cl [trichloroethene] | 0.00066
9 | COC(F)(F)C(Cl)Cl [2,2-dichloro-1,1-difluoro-1-methoxyethane] | 0.0017
10 | CCCl [chloroethane] | 0.00047
11 | [N-]=[N+]=O [dinitrogen monoxide] | 0.00018
12 | C=COC=C [divinyl ether] | 0.00054
13 | FC(F)OC(F)(F)C(F)Cl (centres undefined) [2-chloro-1,1,2-trifluoroethyl difluoromethyl ether] | 0.0003
14 | CCOCC [diethyl ether] | 0.005
